The source of these data is patent US5147876A, “2,6-di,2,4,6-, 2,5,6-tri and 2,4,5,6-tetra-substituted pyrimidines, their pharmaceutically acceptable salts, pharmaceutical compositions containing same and their use in the treatment of neurological diseases” (Mitsui Petrochemical Industries, Ltd., priority 1988, dated 1992).

Molecules are shown by their SMILES.

In this experiment the test system is neuro-2a (mouse neuroblastoma cells). Put plainly: Action on neuro-2a: proportion of cells containing outgrown neurites. In kind it is cell-based. Conditions: mean ± S.D. The procedure:
The effects of the compounds of this invention on neuroblastoma cells were examined by the following method.
Mouse neuro 2a cells in the logarithmic growth period in the Dulbecco's modified Eagle's medium DMEM, containing 100 units/ml of penicillin G sodium and 100 micrograms/ml of streptomycin sulfate]containing 10 % of FCS were seeded in a 48-well plate so that the number of cells was 1,000 cells/well, and cultured for one day in 0.25 ml of the culture fluid in each well in an incubator containing 5 % of carbon dioxide gas in air at 37° C. Then, a 4 % aqueous glutaraldehyde solution in the same amount as a medium (0.25 ml) was added, and the culture fluid was left to stand at room temperature for 2 hours to fix the cells. After washing with water, a 0.05 % aqueous solution of methylene blue was added to stain the cells Under a microscope, the number of cells containing outgrown neurites (cells having at least one neurite with a length of at least two times as large as the long diameter of the cell) was counted visually, and the proportion of these cells in the entire cells was calculated. The well was observed over 5 or more visual fields (at least 2 % of the entire surface area of the well) continuous to the left and right from a mark put at the center of the well, and more than 200 cells was counted. One drug compound was used in 6 different concentrations at most, and three runs were conducted for each concentrations.

On to `CC1CCN(c2nccc(N(C(=O)c3ccccc3)c3ccccc3)n2)CC1.Cc1ccc(S(=O)(=O)O)cc1` [Compound 150], for which the “Number of cells having neurites with a length at least two times the diameter of each cell/total number of cells” value (from here on “Number … of each cell/total number of cells”) reads like this: (0.03 mM) 9.3 ± 1.9%; (0.1 mM) 13.6 ± 1.2%; (0.3 mM) 6.6 ± 3.0%.

Turning to `CN(C(=O)c1ccccc1)c1ccnc(N2CCC(c3ccccc3)CC2)n1` [Compound 165], the “Number … of each cell/total number of cells” value runs as follows: (0.1 mM) 41.0 ± 0.7%; (0.3 mM) 12.4 ± 1.8%.

Turning to `CN(C(=O)c1ccccc1)c1ccnc(N2CCC(c3ccccc3)CC2)n1` [Compound 166], the “Number … of each cell/total number of cells” value is, setting by setting: (0.1 mM) 36.8 ± 7.1%; (0.3 mM) 13.4 ± 4.0%.

With `CN(C(=O)c1ccccc1)c1ccnc(N2CCC(c3ccccc3)CC2)n1` [Compound 167], the “Number … of each cell/total number of cells” value reads like this: (0.1 mM) 22.5 ± 3.4%; (0.3 mM) 9.3 ± 2.3%.

In the case of `Cc1ccc(C(=O)N(C)c2ccnc(N3CCC(c4ccccc4)CC3)n2)cc1` [Compound 171-3], the “Number … of each cell/total number of cells” value is, setting by setting: (0.1 mM) 28.8 ± 3.1%; (0.3 mM) 19.5 ± 7.0%.

For the compound `CN(C(=O)c1ccccc1)c1ccnc(N2CCC(c3ccccc3)CC2)n1` [Compound 171], the “Number … of each cell/total number of cells” value is given as 37.1 ± 1.9% (0.1 mM) and 8.8 ± 2.6% (0.3 mM).

As for `CN(C(=O)c1ccccc1)c1ccnc(N2CCC(C(=O)c3ccccc3)CC2)n1` [Compound 306], the “Number … of each cell/total number of cells” value by setting is: (0.03 mM) 7.7 ± 0.5%; (0.1 mM) 2.8 ± 0.8%.

Regarding `CN(C(=O)c1ccccc1)c1nccc(N2CCC(C(C)(C)C)CC2)n1` [Compound 620], the “Number … of each cell/total number of cells” value is 4.7 ± 0.4% (0.01 mM) and 4.0 ± 1.3% (0.03 mM).

Consider `CCN(C(=O)c1ccccc1)c1nccc(N2CCC(c3ccccc3)CC2)n1` [Compound 636], for which the “Number … of each cell/total number of cells” value runs as follows: (0.03 mM) 12.1 ± 3.4%; (0.1 mM) 8.9 ± 5.2%.

As for `CC(C)N(C(=O)c1ccccc1)c1nccc(N2CCC(c3ccccc3)CC2)n1` [Compound 652], the “Number … of each cell/total number of cells” value (0.03 mM) was 6.1 ± 0.6% and the “Number … of each cell/total number of cells” value (0.1 mM) is given as 12.5 ± 2.8%.

In the case of `CC(C)N(Cc1ccccc1)c1nccc(N(C)C(=O)c2ccccc2)n1` [Compound 662], the “Number … of each cell/total number of cells” value is, setting by setting: (0.1 mM) 3.1 ± 1.6%; (0.3 mM) 2.6 ± 0.9%.

With `CN(C(=O)c1ccc([N+](=O)[O-])cc1)c1nccc(N2CCC(c3ccccc3)CC2)n1` [Compound 676], the “Number … of each cell/total number of cells” value is on record as 6.0 ± 1.1% (0.3 mM) and 4.2 ± 2.1% (1 mM).

Take `CN(C(=O)c1ccccc1)c1nccc(N2CCC(Cc3ccccc3)CC2)n1` [Compound 692]: the “Number … of each cell/total number of cells” value (0.03 mM) worked out at 5.8 ± 0.9% and the “Number … of each cell/total number of cells” value (0.1 mM) is on record as 11.1 ± 2.9%.

With `COC(=O)c1cnc(NC(C)C)nc1C` [Compound 800, 2-isopropylamino-4-methyl-5-methoxycarbonylpyrimidine], the “Number … of each cell/total number of cells” value by setting is: (0.3 mM) 11.4 ± 1.2%; (1 mM) 25.7 ± 1.9%; (3 mM) 22.3 ± 0.7%; (10 mM) 16.9 ± 0.8%.

Consider `CCOC(=O)c1cnc(N2CCCCC2)nc1CSC` [Compound 816], for which the “Number … of each cell/total number of cells” value is reported as 4.7 ± 2.1% (0.03 mM) and 4.0 ± 0.3% (0.1 mM).

Regarding `CNc1ccnc(N2CCCc3ccccc32)n1` [Compound 1034], the “Number … of each cell/total number of cells” value reads like this: (0.03 mM) 3.9 ± 2.8%; (0.1 mM) 7.6 ± 2.1%; (0.3 mM) 11.3 ± 1.6%.

As for `CNc1ccnc(N2CCc3ccccc3C2)n1` [Compound 1038], the “Number … of each cell/total number of cells” value runs as follows: (0.03 mM) 2.2 ± 0.4%; (0.1 mM) 2.9 ± 0.3%.

In the case of `CNc1nc(N2CCC(c3ccccc3)CC2)ncc1C` [Compound 1098], the “Number … of each cell/total number of cells” value was 5.3 ± 1.4% (0.01 mM), 10.2 ± 0.9% (0.03 mM) and 5.7 ± 2.0% (0.1 mM).

For the compound `CNc1nc(N2CCCc3ccccc32)ncc1C` [Compound 1102], the “Number … of each cell/total number of cells” value (0.1 mM) came out at 11.9 ± 0.7% and the “Number … of each cell/total number of cells” value (0.3 mM) was found to be 10.1 ± 3.0%.

`CNc1nc(C)cc(N2CCCCC2)n1` [Compound 1110]: the “Number … of each cell/total number of cells” value turned out to be 3.4 ± 1.1% (0.01 mM), 4.4 ± 0.3% (0.03 mM), 6.3 ± 4.4% (0.1 mM) and 16.5 ± 2.1% (0.3 mM).

As for `CNc1nccc(N2CCC(c3ccccc3)CC2)n1` [Compound 1122], the “Number … of each cell/total number of cells” value reads like this: (0.01 mM) 4.2 ± 2.1%; (0.03 mM) 10.2 ± 3.8%.

For the compound `CNc1nccc(N2CCc3ccccc3C2)n1` [Compound 1130], the “Number … of each cell/total number of cells” value by setting is: (0.03 mM) 1.8 ± 0.5%; (0.1 mM) 2.0 ± 0.3%.

With `Cc1ccc(S(=O)(=O)N(C)c2ccnc(N3CCC(c4ccccc4)CC3)n2)cc1` [Compound 2012], the “Number … of each cell/total number of cells” value was 6.6 ± 1.2% (0.03 mM) and 6.6 ± 3.1% (0.3 mM).

For the compound `CN(C(=O)c1ccccc1)c1ccnc(N2CCC(N3CCCCC3)CC2)n1` [Compound 2052], the “Number … of each cell/total number of cells” value reads like this: (0.01 mM) 4.6 ± 2.1%; (0.03 mM) 3.7 ± 0.4%.

Consider `CN(C(=O)c1ccccc1)c1ccnc(N2CCC(O)CC2)n1` [Compound 2060], for which the “Number … of each cell/total number of cells” value (0.03 mM) is 3.6 ± 0.1% and the “Number … of each cell/total number of cells” value (1 mM) turned out to be 7.6 ± 0.7%.

With `CN(C(=O)c1ccccc1)c1ccnc(N2CCC(c3ccc([N+](=O)[O-])cc3)CC2)n1` [Compound 2076], the “Number … of each cell/total number of cells” value is, setting by setting: (0.01 mM) 4.8 ± 1.4%; (0.03 mM) 1.9 ± 1.3%.

In the case of `CCOC(=O)C1CCN(c2nccc(N(C)C(=O)c3ccccc3)n2)CC1` [Compound 2100], the “Number … of each cell/total number of cells” value (0.03 mM) stood at 4.4 ± 0.8% and the “Number … of each cell/total number of cells” value (0.1 mM) amounted to 4.7 ± 1.4%.

In the case of `CN(C(=O)c1ccccc1)c1ccnc(N(Cc2ccccc2)Cc2ccccc2)n1` [Compound 2108], the “Number … of each cell/total number of cells” value (0.03 mM) is listed as 4.8 ± 2.0% and the “Number … of each cell/total number of cells” value (1 mM) came to 13.5 ± 0.1%.

Take `CN(C(=O)c1ccccc1)c1ccnc(N2CCC(N(C)C)CC2)n1` [Compound 2148]: the “Number … of each cell/total number of cells” value by setting is: (0.03 mM) 4.5 ± 1.3%; (0.1 mM) 4.2 ± 1.2%.

In the case of `CN(C(=O)c1ccccc1)c1ccnc(N2CCC(NC(=O)c3ccccc3)CC2)n1` [Compound 2174], the “Number … of each cell/total number of cells” value (0.01 mM) is listed as 2.5 ± 1.0%.

As to `CN(C(=O)c1ccccc1)c1ccnc(NC2CCNCC2)n1` [Compound 2188], the “Number … of each cell/total number of cells” value reads like this: (0.1 mM) 2.4 ± 0.9%; (0.3 mM) 3.8 ± 1.1%.

On to `CN(C(=O)c1ccc(NC(=O)c2ccccc2)cc1)c1ccnc(N2CCC(c3ccccc3)CC2)n1` [Compound 2194], for which the “Number … of each cell/total number of cells” value is 9.5 ± 3.5% (0.1 mM) and 7.6 ± 2.8% (0.3 mM).
